# Experimental data as given in PMC12552596 (Nature Communications, 2025).
# Molecular target: T1, human glucose-6-phosphate transporter (G6PT) (Homo sapiens, UniProt O43826, W138F)
# T1 sequence (O43826 1-429 W138F): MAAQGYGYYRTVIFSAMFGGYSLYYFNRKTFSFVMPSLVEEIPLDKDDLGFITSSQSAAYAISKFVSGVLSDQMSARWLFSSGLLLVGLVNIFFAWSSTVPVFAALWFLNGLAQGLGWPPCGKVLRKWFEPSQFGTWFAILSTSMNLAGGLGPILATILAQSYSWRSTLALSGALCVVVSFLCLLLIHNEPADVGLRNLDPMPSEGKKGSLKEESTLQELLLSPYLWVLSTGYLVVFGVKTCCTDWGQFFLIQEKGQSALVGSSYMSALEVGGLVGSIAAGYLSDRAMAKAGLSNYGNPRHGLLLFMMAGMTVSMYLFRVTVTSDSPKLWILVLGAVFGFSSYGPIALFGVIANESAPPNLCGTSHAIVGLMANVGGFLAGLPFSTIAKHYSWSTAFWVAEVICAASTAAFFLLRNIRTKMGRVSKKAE
# T1 sequence (P35575 1-357 partner): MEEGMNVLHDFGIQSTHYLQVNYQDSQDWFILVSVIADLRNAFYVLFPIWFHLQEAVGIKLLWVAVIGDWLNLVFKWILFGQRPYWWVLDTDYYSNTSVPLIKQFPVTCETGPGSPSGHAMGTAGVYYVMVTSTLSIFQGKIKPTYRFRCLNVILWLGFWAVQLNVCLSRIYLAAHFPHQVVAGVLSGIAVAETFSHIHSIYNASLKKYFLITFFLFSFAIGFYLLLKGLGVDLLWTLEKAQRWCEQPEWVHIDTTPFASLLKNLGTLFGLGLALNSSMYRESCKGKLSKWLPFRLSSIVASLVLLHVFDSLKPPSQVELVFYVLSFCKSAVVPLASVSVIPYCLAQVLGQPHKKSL
# Assay type: cell-based
smiles,measurement,value
"O=C(/C=C/c1ccc(O)c(O)c1)O[C@@H]1C[C@](O)(C(=O)O)C[C@@H](O)[C@H]1O [CHA, chlorogenic acid]",IC50,523 ± 210 µM
